Experimental data: patent US20250066417A9, “NEW PEPTIDE-BASED DIAGNOSTIC AND THERAPEUTIC AGENTS” (ENLITISA (SHANGHAI) PHARMACEUTICAL CO., LTD., priority 2021, published 2025)
“And” between values parts separate entries of the source, which are not always exact repeats. Equal values may be shown once. Bridges are numbered along the chain shown (N, C = ends). Roman numbers before positions name the chains, in order. Where no end group is shown, it is not given here. [ ]: non-standard residue; d: D form. Dopa = N[C@@H](Cc1ccc(O)c(O)c1)C(=O)O; ACP = 6-aminocaproic acid (linker); Hyp = O=C(O)[C@@H]1C[C@@H](O)CN1

How the values were obtained:
[1] = Fluorescence stability of the 0.05 mg/mL aqueous solution at room temperature; type: physicochemical; details: 0.05 mg/mL in distilled water, after one hour at room temperature
Procedure: (§1) The title compound of Example 1 above was dissolved in distilled water to make a 0.05 mg/mL solution. The fluorescence absorption of the solution was scanned at 520 nm using a Hitachi F-7000 fluorescence spectrophotometer with an Interval of 20 nm. The optimal excitation wavelength was 450 nm and the maximum absorption wavelength was 521 nm.

rat rectum [2] = experiment: Ex vivo adhesive study: fluorescence imaging of excised rat rectum; details: rat rectum, 0, 0.5, 1 and 2 hours, FIG. 2
Procedure: as §1
(§2) In a separate ex vivo study, rats were anesthetized and their abdominal cavities opened. 8 cm of the rectum was removed and cut Into 2 pieces, with fat and contents stripped. 1 mL of normal saline was used to flush the rectal cavities, which were then placed Into a constant humidity plate. 1 mL of the solution of test compound was Injected Into the rectum and ligated at both ends. Samples were taken at 0 hours, 0.5 hours, 1 hour and 2 hours for fluorescence imaging. A MZX81 fluorescence stereomicroscope was used for imaging (Guangzhou Micro-Shot Technology Co., Ltd).
(§3) The fluorescence Images are show in FIG. 1 (in vivo study) and FIG. 2 (ex vivo study).

rat rectum [3] = experiment: In vivo adhesive study: fluorescence imaging of rat rectum after rectal injection
Procedure: as §1
In an in vivo study, four rats were anesthetized by intraperitoneal injection of 5% chloral hydrate at a dose of 7 ml/kg. 1 mL of the solution of test compound was Injected Into the rectum using a 2 mL syringe. Swallowtail clamps were used to seal the anus to keep the liquid in rectum for about 2 hours. Rats were sacrificed at 2 hours, 4 hours, 8 hours and 24 hours after injection of test compound.
as §2, §3

[4] = Pharmacokinetic study of tritium-labelled peptide after rectal administration (total radioactivity by liquid scintillation); details: for Total radioactivity at 168 h (Cmax %): 168 h as % of Cmax
Procedure: 1 mL of a pH 5.0 acetic acid solution was added to the product of Example 3 above with even mixing. 0.952 mL of the resultant solution was added to a 40 mL glass bottle.
About 200 μL of 0.5% Evans Blue aqueous solution was added followed by even mixing. […] 30 Sprague-Dawley rats, half male and half female (Beijing Vital River Laboratory Animal Technology Co., Ltd.) were quarantined and acclimatised in polycarbonate cages for 5 to 7 days. The environmental conditions were controlled at room temperature of between 20° C. and 26° C., with a relative humidity of between 40% and 70%, with 12 hours of alternating lightness and darkness.
The body weights required for randomization were obtained on Day 1 (before dosing). After randomization, rats were assigned to one of five groups (three animals per sex in each group).
After weighing, animals were anesthetized by Intramuscular Injection of Zoletil-50. The animals were placed on their backs. Stools at the end of their rectums were gently squeezed out, and the skin around anus was disinfected with 75% alcohol.
A closed catheter (No. 8, double lumen with guide wire) was Inserted Into the anus of the rats to a depth of about 3 cm, and then a gastric lavage needle was slowly Inserted to a depth of at least 3.5 cm. After lifting the perlanal skin, fixing the catheter and the gavage needle, about 1 mL of water was Injected Into the bladder cavity of the syringe guide catheter to make it expand. Then the gel comprising the title compound was given quickly through the needle.
After administration, the catheter was ligated and fixed by wrapping tape around the root of the rats' tails. The catheter remained in the rectum for about 4 hours before removal.
Blood, rectal contents and rectal mucosa samples were collected. All centrifuge tubes coated with EDTA-K2 were stored either in a refrigerator (at 2 to 8° C.) or In a cooler filled with Ice, and were protected from light prior to use. The collected blood was transferred Into the centrifuge tubes and stored in an Ice box protected from light after being mixed manually by reversing the tubes at least 5 times.
Then, the tubes were centrifuged at 1800 g for 10 minutes at between 2 and 8° C., 2 hours after blood collection. After centrifugation, the collected plasma samples were transferred Into newly-labeled centrifuge tubes and aliquoted Into two sets, stored ay below −70° C.
Plasma, rectal contents and rectal mucosa samples were analyzed using a liquid scintillation counter, and the radioactive concentration was calculated according to the actual sampling volume. Half-lives were also calculated using WinNonlin software. MS Excel was used for data statistical analysis, including mean, standard deviation (SD), and coefficient of variation (CV), etc.
Total radioactivity unit (ng Eq./g)=DPM/g÷S.A. ×1000, S.A.=144,300 DPM/μg

For “[5-FITC-ACP-Ala-Lys-Pro-Ser-Tyr-Hyp-Thr-DOPA-Hyp-Lys)2-Lys]2-Lys ({5‑FITC-ACP}-AKPSY[Hyp]T[Dopa][Hyp]K; also: branched dendrimer: four peptide copies on a three-Lys core) [Example 1]”, the “fluorescence intensity (stability of test compound in solution)” value [1] was “did not change”, the “adhesiveness of test compound to mucous” value (rat rectum [2]) was “very stable” and the “adhesiveness of test compound to mucous” value (rat rectum [3]; rat rectum, 2, 4, 8 and 24 hours after injection, FIG. 1) was “very stable”. The “fluorescence intensity in the in vivo samples” value (rat rectum [3]; rat rectum, even with constant fecal excretion) was “did not decrease significantly”.
In the case of “I: AKPSY[Hyp]T[Dopa][Hyp]KKK-OH / II: AKPSY[Hyp]T[Dopa][Hyp]KK / III: AKPSY[Hyp]T[Dopa][Hyp]K / IV: AKPSY[Hyp]T[Dopa][Hyp]K (amide I:11-IV:C, I:12-II:C, II:11-III:C) [Example 3, ^3H-Labelled [(Ala-Lys-Pro-Ser-Tyr-Hyp-Thr-DOPA-Hyp-Lys)2-Lys]2-Lys]”, the “radioactivity in rectal mucosa relative to rectal contents” value ([4]; 24 hours after administration) was “about 6.01 times”, the “radioactivity in rectal mucosa relative to rectal contents” value ([4]; 72 hours after administration) was about 3.32 times and the “radioactivity in rectal mucosa relative to rectal contents” value ([4]; 168 hours) was 2.28 times. For the same substance, the “radioactivity concentration of rectal mucosa relative to plasma” value ([4]; one hour after rectal administration) was 1121 times, the Total radioactivity ([4]; plasma, 1 h, rectal 1.5 mg/100 μCi/kg, rats) was 47.8 ng Eq./g and 47.8 ± 12.2 ng Eq./g and the Total radioactivity ([4]; plasma, 6 h, rectal 1.5 mg/100 μCi/kg, rats) was 54.1 ng Eq./g and 54.1 ± 14.4 ng Eq./g. The Total radioactivity ([4]; plasma, 24 h, rectal 1.5 mg/100 μCi/kg, rats) was 18.6 ± 6.2 ng Eq./g, the Total radioactivity ([4]; plasma, 72 h, rectal 1.5 mg/100 μCi/kg, rats) was 15.2 ± 8.4 ng Eq./g and the Total radioactivity ([4]; plasma, 168 h, rectal 1.5 mg/100 μCi/kg, rats) was 13.3 ± 3.41 ng Eq./g. The “tolerability of the experimental dose” value ([4]; rectal 1.5 mg/100 μCi/kg, rats) was “well tolerated”, the “adverse reaction after administration” value ([4]; rectal 1.5 mg/100 μCi/kg, rats, whole experiment) was “no obvious adverse reaction” and the “time of highest total radioactivity after administration” value ([4]; rectal contents) was 1 h. For the same substance, the Total radioactivity ([4]; rectal contents, 1 h, rectal 1.5 mg/100 μCi/kg, rats) was 35322 ng Eq./g and 35322 ± 515 ng Eq./g, the Total radioactivity ([4]; rectal contents, 6 h, rectal 1.5 mg/100 μCi/kg, rats) was 21981 ± 153 ng Eq./g and the Total radioactivity ([4]; rectal contents, 24 h, rectal 1.5 mg/100 μCi/kg, rats) was 56.4 ± 54. ng Eq./g. The “average concentration at 24 hours as % of Cmax” value ([4]; rectal contents) was about 0.16%, the Total radioactivity ([4]; rectal contents, 72 h, rectal 1.5 mg/100 μCi/kg, rats) was 44.3 ± 27. ng Eq./g and the Total radioactivity ([4]; rectal contents, 168 h, rectal 1.5 mg/100 μCi/kg, rats) was 16.5 ng Eq./g and 16.5 ± 6.88 ng Eq./g. The “Total radioactivity at 168 h (Cmax %)” value ([4]; rectal contents) was 0.05%, the “time of highest total radioactivity after administration” value ([4]; rectal mucosa) was 1 h and the Total radioactivity ([4]; rectal mucosa, 1 h, rectal 1.5 mg/100 μCi/kg, rats) was 53593 ng Eq./g and 53593 ± 472 ng Eq./g. The “radioactivity concentration of rectal mucosa relative to that at 1 h” value ([4]; rectal mucosa, 6 h (11163 ng Eq./g)) was “about 20.83%”, the Total radioactivity ([4]; rectal mucosa, 6 h, rectal 1.5 mg/100 μCi/kg, rats) was 11163 ng Eq./g and 11163 ± 702 ng Eq./g and the Total radioactivity ([4]; rectal mucosa, 24 h, rectal 1.5 mg/100 μCi/kg, rats) was 339 ng Eq./g and 339 ± 95. ng Eq./g. For the same substance, the “average concentration at 24 hours as % of Cmax” value ([4]; rectal mucosa) was “about 0.63%”, the Total radioactivity ([4]; rectal mucosa, 72 h, rectal 1.5 mg/100 μCi/kg, rats) was 147 ng Eq./g and 147 ± 84. ng Eq./g and the Total radioactivity ([4]; rectal mucosa, 168 h, rectal 1.5 mg/100 μCi/kg, rats) was 37.6 ng Eq./g and 37.6 ± 10.2 ng Eq./g. The “Total radioactivity at 168 h (Cmax %)” value ([4]; rectal mucosa) was 0.07% and the “gender differences in total radioactivity concentrations” value ([4]; rectal mucosa, rectal contents and plasma, male vs female rats) was “no significant gender differences”.
